Source: US20060199966A1, “Indol-2-amides as glycogen phosphorylase inhibitors” (AstraZeneca AB, priority 2003, published 2006)
≈ marks a conversion by molar mass, not a printed value.

Columns and labels:
conscious dogs = details: following a glucagon challenge; cited from earlier work
hepatocytes = details: cited from earlier work; for glucose output: glucagon stimulated
db/db and ob/ob mice = details: dose related; cited from earlier work
Thermodynamic solubility = type: physicochemical; details: phosphate buffer, pH 7.4, aqueous buffer, thermodynamic from solid, 0.1 M phosphate at pH7.4 for 24 hours
Description: The thermodynamic solubility data for the compounds of the invention as given above may be measured by agitating the compound in 0.1 M phosphate at pH7.4 for 24 hours, then analysis of the supernatant (for example by LCUV/MS) using a solution (for example in DMSO) of known concentration as the calibrant.

[1] = biological target: T1, Human recombinant liver glycogen phosphorylase a (hrl GPa) (Homo sapiens, UniProt P06737); experiment: Glycogen phosphorylase inhibition, multienzyme coupled assay; type: biochemical; details: hrl GPa 20 nM, 6 hours at 30° C.
T1 sequence (P06737 1-847): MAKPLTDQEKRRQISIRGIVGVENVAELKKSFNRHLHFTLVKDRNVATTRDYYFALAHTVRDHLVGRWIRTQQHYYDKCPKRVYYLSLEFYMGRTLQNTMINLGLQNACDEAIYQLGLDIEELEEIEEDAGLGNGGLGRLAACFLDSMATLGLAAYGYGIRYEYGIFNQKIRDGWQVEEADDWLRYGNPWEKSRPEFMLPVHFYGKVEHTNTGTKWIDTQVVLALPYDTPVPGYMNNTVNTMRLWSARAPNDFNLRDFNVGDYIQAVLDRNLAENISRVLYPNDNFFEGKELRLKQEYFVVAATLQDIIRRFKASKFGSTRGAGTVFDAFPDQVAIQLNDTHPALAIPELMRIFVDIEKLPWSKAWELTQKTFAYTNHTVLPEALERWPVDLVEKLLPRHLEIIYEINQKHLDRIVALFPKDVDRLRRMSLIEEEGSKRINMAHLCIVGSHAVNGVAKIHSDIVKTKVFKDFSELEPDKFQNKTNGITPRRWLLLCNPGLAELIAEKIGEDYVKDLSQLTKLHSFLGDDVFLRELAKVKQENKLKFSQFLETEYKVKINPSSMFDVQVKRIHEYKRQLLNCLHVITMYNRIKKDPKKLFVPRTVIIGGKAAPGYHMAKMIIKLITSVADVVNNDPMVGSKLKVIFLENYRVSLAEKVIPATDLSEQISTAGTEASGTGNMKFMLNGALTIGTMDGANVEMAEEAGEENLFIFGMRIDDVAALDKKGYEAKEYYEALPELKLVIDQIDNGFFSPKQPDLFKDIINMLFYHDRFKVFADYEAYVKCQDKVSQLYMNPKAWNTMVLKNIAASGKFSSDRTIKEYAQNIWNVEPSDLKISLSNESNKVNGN
Description: The activity of the compounds is alternatively determined by measuring the inhibitory effect of the compounds on glycogen degradation, the production of glucose-1-phosphate from glycogen is monitored by the multienzyme coupled assay, as described in EP 0 846 464 A2, general method of Pesce et al (Pesce, M A, Bodourian, S H, Harris, R C, and Nicholson, J F (1977) Clinical Chemistry 23, […]). The reactions were in 384 well microplate format in a volume of 50 μl. The change in fluorescence due to the conversion of the co-factor NAD to NADH is measured at 340 nm excitation, 465 nm emission in a Tecan Ultra Multifunctional Microplate Reader. The reaction is in 50 mM […], 3.5 mM KH2PO4, 2.5 mM MgCl2, 2.5 mM ethylene glycol-bis(b-aminoethyl ether) N,N,N,′N′-tetraacetic acid, 100 mM KCl, 8 mM D-(+)-glucose pH7.2, containing 0.5 mM dithiothreitol, the assay buffer solution. Human recombinant liver glycogen phosphorylase a (hrl GPa) 20 nM is pre-incubated in assay buffer solution with 6.25 mM NAD, 1.25 mg type E1 glycogen at 1.25 mg ml^−1 the reagent buffer, for 30 minutes. […] The non-inhibited activity of GPa is measured in the presence of 10 μl 5% DMSO in assay buffer solution and maximum inhibition measured in the presence of 5 mgs ml^−1 N-ethylmaleimide. […] Relative Fluoresence Units (RFUs) are measured at 340 nm excitation, 465 nm emission. […]

| solubility at 24 h (Thermodynamic solubility) [µM] | IC50 [1] [µM] | SMILES | glucagon stimulated glycogenolysis (hepatocytes) | glucose output (hepatocytes) | plasma glucose concentration (db/db and ob/ob mice) | further results |
| --- | --- | --- | --- | --- | --- | --- |
| – | – | CCN1C(C)=C(C(=O)OC(C)C)C(c2ccccc2Cl)C2=C1COC2=O (stereo not drawn) [Bay R 3401] | – | – | – | arterial plasma glucose (conscious dogs): reduced significantly; hepatic glucose output (conscious dogs): reduced significantly |
| – | – | CN(C)C(=O)[C@H](O)[C@H](Cc1ccccc1)NC(=O)c1cc2cc(Cl)ccc2[nH]1 [CP91149] | reduce | reduce | reduced, in a dose related manner | – |
| – | – | O=C(N[C@@H](Cc1ccc(F)cc1)C(=O)N1CCC(O)CC1)c1cc2cc(Cl)ccc2[nH]1 [CP320626] | reduce | reduce | reduced, in a dose related manner | – |
| 173 | 0.5 | CN(C(=O)[C@@H](N)CO)[C@@H]1c2ccccc2C[C@H]1NC(=O)c1cc2cc(Cl)ccc2[nH]1.Cl [Example 2, 5-Chloro-N-{(1R,2R)-1-[methyl(seryl)amino]-2,3-dihydro-1H-inden-2-yl}-1H-indole-2-carboxamide hydrochloride] | – | – | – | – |
| 119 (≈ 50.9 µg/mL) | 0.11 | CN(C(=O)[C@H](O)CO)[C@@H]1c2ccccc2C[C@H]1NC(=O)c1cc2cc(Cl)ccc2[nH]1 [Example 19, 5-Chloro-N-{(1R,2R)-1-[[(2R)-2,3-dihydroxypropanoyl](methyl)amino]-2,3-dihydro-1H-inden-2-yl}-1H-indole-2-carboxamide] | – | – | – | – |
